Assay results as given in US9073940B2, “Tricyclic pyrazol amine derivatives” (MERCK SERONO SA, priority 2009, dated 2015).
Structures can show the parent of a compound that is named as a salt.

Experiments:
[1] = tested on: 4 PI3K isoforms (Human recombinant GST-PI3K); test: PI3K scintillation proximity assay, best IC50 obtained with the four isoforms (alpha, beta, delta, gamma); type: biochemical; conditions: best IC50 obtained with the four isoforms of PI3K; read-out: Best potency measured on the 4 PI3K isoforms
[2] = tested on: AKT phosphorylation (p-AKT Ser 473) in Ramos B-lymphocyte cell line; test: Mechanistic on-target cell assay: flow cytometry of AKT phosphorylation after anti-human IGM stimulation; type: cell-based
Experimental: Mechanistic-On Target Cell Assay
The reaction was stopped by fixing the cells with Paraformaldehyde 4% (final) for 10 minutes at room temperature. Cells were washed once with Phosphate Buffer Saline (PBS), permabilized in PBS-Triton X-100 0.2% for 15 minutes at room temperature washed twice with PBS and once with PBS-4% serum. […] Cells were washed twice in PBS and resuspended in PBS. The cell suspension was passed on a FC500 flow cytometer (Beckman Coulter), gating on the IGM positive cells and measuring the AKT phosphorylation.

Row | Molecule | IC50 [1] | IC50 [2]
1 | 3-(morpholin-4-ylcarbonyl)-1-[1-(2-morpholin-4-ylethyl)piperidin-3-yl]-1,4-dihydrothiochromeno[4,3-c]pyrazole 5,5-dioxide [Example 345] | 16 nM | 68 nM
2 | COCCN1CCC[C@H](n2nc(C(=O)N3CCOCC3)c3c2-c2ccccc2S(=O)(=O)C3)C1 (single isomer, unassigned) [Example 346, 1-[1-(2-methoxyethyl)piperidin-3-yl]-3-(morpholin-4-ylcarbonyl)-1,4-dihydrothiochromeno[4,3-c]pyrazole 5,5-dioxide] | 40 nM | 128 nM
3 | O=C(c1nn([C@H]2CCCN(CCN3CCOCC3)C2)c2c1CS(=O)(=O)c1c(F)cccc1-2)N1CCOCC1 (single isomer, unassigned) [Example 350, 6-fluoro-3-(morpholin-4-ylcarbonyl)-1-[1-(2-morpholin-4-ylethyl)piperidin-3-yl]-1,4-dihydrothiochromeno[4,3-c]pyrazole 5,5-dioxide hydrochloride salt] | 16 nM | 40 nM
4 | O=C(c1nn([C@H]2CCN(C3CCOCC3)C2)c2c1CS(=O)(=O)c1c(F)cccc1-2)N1CCOCC1 (single isomer, unassigned) [Example 355, 6-fluoro-3-(morpholin-4-ylcarbonyl)-1-[1-(tetrahydro-2H-pyran-4-yl)pyrrolidin-3-yl]-1,4-dihydrothiochromeno[4,3-c]pyrazole 5,5-dioxide hydrochloride salt] | 52 nM | 94 nM
5 | O=C(c1nn([C@@H]2CCCN(C3CCOCC3)CC2)c2c1CS(=O)(=O)c1ccccc1-2)N1CCOCC1 (single isomer, unassigned) [Example 400] | 104 nM | 888 nM
6 | O=C(c1nn([C@H]2CCCN(C3CCOCC3)CC2)c2c1CS(=O)(=O)c1ccccc1-2)N1CCOCC1 (single isomer, unassigned) [Example 401] | 340 nM | 3630 nM
7 | O=C(c1nn([C@@H]2CCN(C3CCOCC3)C2)c2c1CS(=O)(=O)c1ccccc1-2)N1CCOCC1 (single isomer, unassigned) [Example 403] | 45 nM | 214 nM
8 | O=C(c1nn([C@H]2CCCN(CCN3CCOCC3)C2)c2c1CS(=O)(=O)c1cc(F)ccc1-2)N1CCOCC1 (stereo in doubt) [Example 472, 7-fluoro-3-(morpholin-4-ylcarbonyl)-1-[1-(2-morpholin-4-ylethyl)piperidin-3-yl]-1,4-dihydrothiochromeno[4,3-c]pyrazole 5,5-dioxide] | 14 nM | 45 nM
9 | COc1cccc2c1S(=O)(=O)Cc1c(C(=O)N3CCOCC3)nn(-c3ccccc3)c1-2 [Example 1, 6-methoxy-3-(morpholin-4-ylcarbonyl)-1-phenyl-1,4-dihydrothiochromeno[4,3-c]pyrazole 5,5-dioxide] | 459 nM | 570 nM
10 | Cc1ccc(-n2nc(C(=O)N3CCOCC3)c3c2-c2ccccc2S(=O)(=O)C3)cc1 [Example 7, 1-(4-methylphenyl)-3-(morpholin-4-ylcarbonyl)-1,4-dihydrothiochromeno[4,3-c]pyrazole 5,5-dioxide] | 690 nM | 976 nM
11 | O=C(c1nn(C2CCCCC2)c2c1CS(=O)(=O)c1ccccc1-2)N1CCOCC1 [Example 12, 1-cyclohexyl-3-(morpholin-4-ylcarbonyl)-1,4-dihydrothiochromeno[4,3-c]pyrazole 5,5-dioxide] | 136 nM | 167 nM
12 | O=C(c1nn(-c2ccccc2)c2c1CS(=O)(=O)c1c(F)cccc1-2)N1CCOCC1 [Example 15, 6-fluoro-3-(morpholin-4-ylcarbonyl)-1-phenyl-1,4-dihydrothiochromeno[4,3-c]pyrazole 5,5-dioxide] | 424 nM | 364 nM
13 | O=C(c1nn(-c2ccccc2)c2c1CS(=O)(=O)c1ccccc1-2)N1CCOCC1 [Example 33, 3-(morpholin-4-ylcarbonyl)-1-phenyl-1,4-dihydrothiochromeno[4,3-c]pyrazole 5,5-dioxide] | 244 nM | 706 nM
14 | Cn1nc(C(=O)N2CCOCC2)c2c1-c1ccccc1S(=O)(=O)C2 [Example 34, 1-methyl-3-(morpholin-4-ylcarbonyl)-1,4-dihydrothiochromeno[4,3-c]pyrazole 5,5-dioxide] | 1750 nM | 1800 nM
15 | CCn1nc(C(=O)N2CCOCC2)c2c1-c1ccccc1S(=O)(=O)C2 [Example 37, 1-ethyl-3-(morpholin-4-ylcarbonyl)-1,4-dihydrothiochromeno[4,3-c]pyrazole 5,5-dioxide] | 601 nM | 493 nM
16 | COc1ccc(Cn2nc(C(=O)N3CCOCC3)c3c2-c2ccccc2S(=O)(=O)C3)cc1 [Example 38, 1-(4-methoxybenzyl)-3-(morpholin-4-ylcarbonyl)-1,4-dihydrothiochromeno[4,3-c]pyrazole 5,5-dioxide] | 459 nM | 942 nM
17 | CCCn1nc(C(=O)N2CCOCC2)c2c1-c1ccccc1S(=O)(=O)C2 [Example 39, 3-(morpholin-4-ylcarbonyl)-1-propyl-1,4-dihydrothiochromeno[4,3-c]pyrazole 5,5-dioxide] | 641 nM | 388 nM

Row | Molecule | IC50 [1] | IC50 [2]
18 | CC(C)(C)OC(=O)N1CCC(Cn2nc(C(=O)N3CCOCC3)c3c2-c2ccccc2S(=O)(=O)C3)CC1 [Example 43, tert-butyl 4-{[3-(morpholin-4-ylcarbonyl)-5,5-dioxidothiochromeno[4,3-c]pyrazol-1(4H)-yl]methyl}piperidine-1-carboxylate] |  | 534 nM
19 | O=C(c1nn(CCO)c2c1CS(=O)(=O)c1ccccc1-2)N1CCOCC1 [Example 46, 2-[3-(morpholin-4-ylcarbonyl)-5,5-dioxidothiochromeno[4,3-c]pyrazol-1(4H)-yl]ethanol] | 661 nM | 680 nM
20 | O=C(c1nn(CC2CCNCC2)c2c1CS(=O)(=O)c1ccccc1-2)N1CCOCC1 [Example 56, 3-(morpholin-4-ylcarbonyl)-1-(piperidin-4-ylmethyl)-1,4-dihydrothiochromeno[4,3-c]pyrazole 5,5-dioxide] | 531 nM | 8150 nM
21 | Nc1ccc2c(c1)-c1c(c(C(=O)N3CCOCC3)nn1-c1ccccc1)CS2(=O)=O [Example 65, 3-(Morpholin-4-ylcarbonyl)-1-phenyl-1,4-dihydrothiochromeno[4,3-c]pyrazol-8-amine 5,5-dioxide] | 368 nM | 251 nM
22 | CS(=O)(=O)NCc1ccc(-n2nc(C(=O)N3CCOCC3)c3c2-c2ccccc2S(=O)(=O)C3)cc1 [Example 66, N-{4-[3-(Morpholin-4-ylcarbonyl)-5,5-dioxidothiochromeno[4,3-c]pyrazol-1(4H)-yl]benzyl}methanesulfonamide] | 421 nM | 942 nM
23 | O=C(c1nn(C2CCCC2)c2c1CS(=O)(=O)c1ccccc1-2)N1CCOCC1 [Example 73, 1-Cyclopentyl-3-(morpholin-4-ylcarbonyl)-1,4-dihydrothiochromeno[4,3-c]pyrazole 5,5-dioxide] | 205 nM | 317 nM
24 | O=C(c1nn(C2CCCCC2)c2c1CS(=O)(=O)c1ncccc1-2)N1CCOCC1 [Example 79, 3-(Morpholin-4-ylcarbonyl)-1-cyclohexyl-1,4-dihydropyrazolo[3′,4′:4,5]thio pyrano[2,3-b]pyridine 5,5-dioxide] | 437 nM | 492 nM
25 | O=C(c1nn(-c2ccc(CN3CCOCC3)cc2)c2c1CS(=O)(=O)c1ccccc1-2)N1CCOCC1 [Example 137] |  | 300 nM
26 | O=C(c1nn([C@H]2CCCN(CCF)C2)c2c1CS(=O)(=O)c1ncccc1-2)N1CCOCC1 [Example 380] |  | 320 nM
27 | CN(C)CC(C)(C)c1ccc(-n2nc(C(=O)N3CCOCC3)c3c2-c2ccccc2S(=O)(=O)C3)cc1 [Example 458, N,N,2-Trimethyl-2-{4-[3-(morpholin-4-ylcarbonyl)-5,5-dioxidothiochromeno[4,3-c]pyrazol-1(4H)-yl]phenyl}propan-1-amine hydrochloride] | 159 nM | 
28 | CC(C)(CN1CCOCC1)c1ccc(-n2nc(C(=O)N3CCOCC3)c3c2-c2ccccc2S(=O)(=O)C3)cc1 [Example 461, 1-[4-(1,1-Dimethyl-2-morpholin-4-ylethyl)phenyl]-3-(morpholin-4-ylcarbonyl)-1,4-dihydrothiochromeno[4,3-c]pyrazole 5,5-dioxide] | 341 nM | 
29 | O=C(c1nn(-c2ccc(C3(CN4CCOCC4)CC3)cc2)c2c1CS(=O)(=O)c1ccccc1-2)N1CCOCC1 [Example 462, 3-(Morpholin-4-ylcarbonyl)-1-{4-[1-(morpholin-4-ylmethyl)cyclopropyl]phenyl}-1,4-dihydrothiochromeno[4,3-c]pyrazole 5,5-dioxide] | 995 nM | 
30 | O=C(c1nn([C@H]2CCCN(C3CCCNC3)C2)c2c1CS(=O)(=O)c1ccccc1-2)N1CCOCC1 (stereo partly drawn) [Example 469] | 25 nM | 
31 | O=C(c1nn(C2CCCNC2)c2c1CS(=O)(=O)c1cc(OC(F)(F)F)ccc1-2)N1CCOCC1 (stereo not drawn) [Example 481, 7-(Trifluoromethoxy)-3-(morpholin-4-ylcarbonyl)-1-piperidin-3-yl-1,4-dihydrothiochromeno[4,3-c]pyrazole 5,5-dioxide] | 10500 nM | 
32 | O=C(c1nn(-c2ccccc2)c2c1CS(=O)(=O)c1nccn1-2)N1CCOCC1 [Example 485] | 477 nM | 
33 | CN1c2c(C(=O)N3CCOCC3)nn(-c3ccccc3)c2-c2ccccc2S1(=O)=O [Example 488, 4-Methyl-3-(morpholin-4-ylcarbonyl)-1-phenyl-1,4-dihydropyrazolo[4,3-c][1,2]benzothiazine 5,5-dioxide] | 3460 nM | 
34 | O=C(c1nn(-c2ccccc2)c2c1NS(=O)(=O)c1ccccc1-2)N1CCOCC1 [Example 489, 3-(Morpholin-4-ylcarbonyl)-1-phenyl-1,4-dihydropyrazolo[4,3-c][1,2]benzothiazine 5,5-dioxide] | 5500 nM | 
